# Source: PMC11952367 (bioRxiv, 2025)
# How the values were obtained:
# [1] = target: T1, TWIK-2 (Homo sapiens, UniProt Q9Y257); test: automated whole-cell patch clamp, HEK293 GnTI- cells; assay type: cell-based; conditions: inhibition; voltage step to +60 mV from holding -90 mV
# T1 sequence (Q9Y257 1-313): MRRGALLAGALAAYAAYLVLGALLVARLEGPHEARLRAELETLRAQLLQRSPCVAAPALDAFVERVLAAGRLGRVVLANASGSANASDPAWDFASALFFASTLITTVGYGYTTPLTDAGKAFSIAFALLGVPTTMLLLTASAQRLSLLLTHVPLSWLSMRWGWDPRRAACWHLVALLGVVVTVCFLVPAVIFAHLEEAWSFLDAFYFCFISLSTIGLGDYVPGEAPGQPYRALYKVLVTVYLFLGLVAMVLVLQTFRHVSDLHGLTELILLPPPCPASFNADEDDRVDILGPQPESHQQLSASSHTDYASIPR
# [2] = target: T2, ΔC-TWIK-2 (Homo sapiens, UniProt Q9Y257); test: automated whole-cell patch clamp; assay type: cell-based
# T2 sequence (Q9Y257 1-276): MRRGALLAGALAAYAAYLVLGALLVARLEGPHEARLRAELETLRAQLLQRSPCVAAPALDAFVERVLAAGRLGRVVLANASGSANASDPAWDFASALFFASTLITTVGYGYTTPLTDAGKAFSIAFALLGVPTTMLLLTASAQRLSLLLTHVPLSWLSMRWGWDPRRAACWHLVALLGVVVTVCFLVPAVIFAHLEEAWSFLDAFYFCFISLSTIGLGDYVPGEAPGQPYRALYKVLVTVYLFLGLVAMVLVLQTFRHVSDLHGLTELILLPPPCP
smiles,measurement,setting,value
COc1ccccc1C(=O)Nc1cccc(NC(=O)c2cccc(C)c2)c1 [ML365],IC50,[1],1500 nM
same,percentage inhibition at maximum drug concentration,[2],"in ΔC-TWIK-2, we see a significant reduction in percentage inhibition at maximum drug concentration"
